Source: publication PMC6277767, “Broad and Region-Specific Impacts of the Synthetic Cannabinoid CP 55,940 in Adolescent and Adult Female Mouse Brains” (Frontiers in Molecular Neuroscience, 2018)

System: CD1 female mouse brain lipidome
Test: Brain-region lipid levels (HPLC/MS/MS lipidomics) 2 h after single i.p. 3 mg/kg CP 55,940 vs vehicle
Assay type: in vivo
Procedure: The Bloomington Institutional Animal Care and Use Committee of Indiana University reviewed and approved the animal procedures. Female mice from the CD1 strain were utilized to match our study examining THC’s effects on the brain lipidome ([Leishman et al., 2018]). Mice were given a single i.p. injection of either 3 mg/kg CP or 1:1:18 cremophor:ethanol:saline vehicle (please refer to the section “3 mg/kg CP Is Relevant for Synthetic Cannabinoid Abuse and Has Stronger Effects on the Female Mouse Brain Lipidome During Adolescence” for a justification of dose and use of female mice). Three different age groups were given injections: PND 35 and PND 50 adolescents, and adult mice (PND 113). At least eight mice in each age group received CP and at least eight received vehicle. Matching the THC study time course ([Leishman et al., 2018]), mice were sacrificed via rapid decapitation 2 h after injection. Brains were immediately removed and flash-frozen in liquid nitrogen, and then stored at -80°C until dissections were performed. Brains were dissected on an ice-cold dissection plate into the following regions: STR, HIPP, CER, THAL, CTX, HYP, MID, and STEM. These abbreviations for these brain areas will be used exclusively when discussing the results generated by these specific dissections. Each dissected area was immediately placed in liquid nitrogen and then stored at -80°C until used for lipid extraction.
Tissue extracts were performed as previously described ([Bradshaw et al., 2006]; [Stuart et al., 2013]; [Raboune et al., 2014]; [Leishman et al., 2016a],[b], [2017], [2018]). First, samples were shock frozen in liquid nitrogen, weighed, and transferred to a centrifuge tube. The mass of the largest sample was multiplied by 50 to determine how many milliliters of HPLC-grade methanol (Fisher, Fair Lawn, NJ, United States) to add. Then, samples were spiked with 500 pmol deuterium-labeled NAGly (d8NAGly; Cayman Chemical, Ann Arbor, MI, United States). Samples were placed on ice in darkness for 2 h then individually homogenized and centrifuged at 19,000 × g for 20 min at 20°C. Supernatants were diluted with HPLC water (purified in house) to make a solution of 75% water, 25% supernatant. Lipids were partially purified on C18 solid phase extraction columns (Agilent, Palo Alto, CA, United States). A series of four elutions with 1.5 mL of 60%, 75%, 85%, and 100% methanol were collected ([Stuart et al., 2013]; [Leishman et al., 2016a],[b], [2018]).
As previously described ([Bradshaw et al., 2006]; [Tan et al., 2006]; [Smoum et al., 2010]; [Stuart et al., 2013]; [Tortoriello et al., 2013]; [Raboune et al., 2014]; [Leishman et al., 2016a],[b], [2017], [2018]), samples were analyzed using an Applied Biosystems API 3000 triple quadrupole mass spectrometer with electrospray ionization (Foster City, CA, United States). Using an Agilent XDB-C18 reversed phase analytical column and optimized mobile phase gradients, 20 μL from each elution were chromatographed. Two Shimadzu 10ADvp pumps (Columbia, MD, United States) provided the pressure for gradient elution. Mobile phase A: 20% methanol, 80% water (v/v) and 1 mM ammonium acetate (Sigma, St. Louis, MO, United States). Mobile phase B: 100% methanol, 1 mM ammonium acetate. Every method run began with 0% mobile phase B, reached 100% mobile phase B flowing at 0.2 mL/min, and gradually returned to 0% mobile phase B.
This screening library will be referred to as the lipidome when discussing data from this study. HPLC/MS/MS data were analyzed using Analyst software (Applied Biosystems) ([Bradshaw et al., 2006]; [Tan et al., 2006]; [Stuart et al., 2013]; [Tortoriello et al., 2013]; [Raboune et al., 2014]; [Leishman et al., 2016a],[b], [2017], [2018]). Chromatograms (Supplementary Figure 3) were generated by determining the retention time of analytes from the analytical column with a [M-1] or [M+1] parent peak and a fragmentation peak corresponding to the programmed values. […]

## CCCCCCC(C)(C)c1ccc([C@@H]2C[C@H](O)CC[C@H]2CCCO)c(O)c1 [CP 55,940]
PND 35 CTX
  N-oleoyl alanine level vs vehicle: ↓ (1-1.49 times lower than vehicle)
  N-oleoyl glycine level vs vehicle: ↓ (1-1.49 times lower than vehicle)
  N-oleoyl leucine level vs vehicle: ↑ (1-1.49 times higher than vehicle)
  N-oleoyl methionine level vs vehicle: ↓ (1-1.49 times lower than vehicle)
  N-oleoyl valine level vs vehicle: ↑ (1-1.49 times higher than vehicle)
  N-palmitoyl leucine level vs vehicle: ↑↑ (1.50-1.99 times higher than vehicle)
  N-palmitoyl serine level vs vehicle: ↓ (1-1.49 times lower than vehicle)
  N-palmitoyl tyrosine level vs vehicle: ↑ (1-1.49 times higher than vehicle)
  N-palmitoyl valine level vs vehicle: ↑↑ (1.50-1.99 times higher than vehicle)
  N-stearoyl serine level vs vehicle: ↓ (1-1.49 times lower than vehicle)
  N-stearoyl tyrosine level vs vehicle: ↑ (1-1.49 times higher than vehicle)
  PGF2α level vs vehicle: ↑ (1-1.49 times higher than vehicle)
  phosphoLEA level vs vehicle: ↑↑ (1.50-1.99 times higher than vehicle)
PND 35 HIPP
  2-arachidonoyl glycerol level vs vehicle: ↓ (1-1.49 times lower than vehicle)
  2-linoleoyl glycerol level vs vehicle: ↓↓ (1.50-1.99 times lower than vehicle)
  2-oleoyl glycerol level vs vehicle: ↓ (1-1.49 times lower than vehicle)
  6-ketoPGF1α level vs vehicle: ↑ (1-1.49 times higher than vehicle)
  Arachidonic acid level vs vehicle: ↓ (1-1.49 times lower than vehicle)
  Linoleic acid level vs vehicle: ↓ (1-1.49 times lower than vehicle)
  N- stearoyl valine level vs vehicle: ↑ (1-1.49 times higher than vehicle)
  N-arachidonoyl GABA level vs vehicle: ↓↓ (1.50-1.99 times lower than vehicle)
  N-arachidonoyl alanine level vs vehicle: ↓ (1-1.49 times lower than vehicle)
  N-arachidonoyl ethanolamine level vs vehicle: ↓ (1-1.49 times lower than vehicle)
  N-arachidonoyl glycine level vs vehicle: ↓ (1-1.49 times lower than vehicle)
  N-arachidonoyl phenylalanine level vs vehicle: ↓ (1-1.49 times lower than vehicle)
  N-arachidonoyl serine level vs vehicle: ↓↓↓ (2-2.99 times lower than vehicle)
  N-arachidonoyl taurine level vs vehicle: ↓ (1-1.49 times lower than vehicle)
  N-docosahexaenoyl GABA level vs vehicle: ↓↓ (1.50-1.99 times lower than vehicle)
  N-docosahexaenoyl alanine level vs vehicle: ↓ (1-1.49 times lower than vehicle)
  N-docosahexaenoyl ethanolamine level vs vehicle: ↓ (1-1.49 times lower than vehicle)
  N-docosahexaenoyl glycine level vs vehicle: ↓ (1-1.49 times lower than vehicle)
  N-docosahexaenoyl leucine level vs vehicle: ↑ (1-1.49 times higher than vehicle)
  N-docosahexaenoyl serine level vs vehicle: ↓ (1-1.49 times lower than vehicle)
  N-linoleoyl GABA level vs vehicle: ↓↓ (1.50-1.99 times lower than vehicle)
  N-linoleoyl alanine level vs vehicle: ↓ (1-1.49 times lower than vehicle)
  N-oleoyl GABA level vs vehicle: ↓↓ (1.50-1.99 times lower than vehicle)
  N-oleoyl alanine level vs vehicle: ↓ (1-1.49 times lower than vehicle)
  N-oleoyl ethanolamine level vs vehicle: ↓ (1-1.49 times lower than vehicle)
  N-oleoyl glycine level vs vehicle: ↓ (1-1.49 times lower than vehicle)
  N-oleoyl methionine level vs vehicle: ↓ (1-1.49 times lower than vehicle)
  N-oleoyl valine level vs vehicle: ↑ (1-1.49 times higher than vehicle)
  N-palmitoyl alanine level vs vehicle: ↓ (1-1.49 times lower than vehicle)
  N-palmitoyl ethanolamine level vs vehicle: ↓ (1-1.49 times lower than vehicle)
  N-palmitoyl leucine level vs vehicle: ↑ (1-1.49 times higher than vehicle)
  N-palmitoyl phenylalanine level vs vehicle: ↑ (1-1.49 times higher than vehicle)
  N-palmitoyl tyrosine level vs vehicle: ↑ (1-1.49 times higher than vehicle)
  N-palmitoyl valine level vs vehicle: ↑ (1-1.49 times higher than vehicle)
  N-stearoyl GABA level vs vehicle: ↓ (1-1.49 times lower than vehicle)
  N-stearoyl alanine level vs vehicle: ↓ (1-1.49 times lower than vehicle)
  N-stearoyl glycine level vs vehicle: ↓ (1-1.49 times lower than vehicle)
  Oleic Acid level vs vehicle: ↓ (1-1.49 times lower than vehicle)
